What was measured:
[1] = system: greenhouse spider mite (Tetranychus urticae); assay: Tetranychus-Test (OP-resistant/dipped Treatment); type: in vivo; conditions: active compound concentration of 0.01%, after 7 days
Procedure: Tetranychus-Test (OP-resistant/dipped Treatment)
(§1) Solvent: 3 parts by weight of dimethylformamide
(§2) Emulsifier: 1 part by weight of alkylaryl polyglycol ether
(§3) To produce a suitable preparation of active compound, 1 part by weight of active compound is mixed with the stated amount of solvent and the stated amount of emulsifier, and the concentrate is diluted with water to the desired concentration.
Bean plants (Phaseolus vulgaris), which are heavily infested by all stages of the greenhouse spider mite (Tetranychus urticae) are dipped into a preparation of active compound of the desired concentration.
After the desired period of time, the activity in % is determined. 100% means that all spider mites have been killed, 0% means that none of the spider mites have been killed.

[2] = system: larvae of the green rice leaf hoppers (Nepliotettix cincticeps); assay: Nephotettix-Test (rice seedlings dipped); type: in vivo, Nephotettix cincticeps; conditions: active compound concentration of 0.1%, after 6 days
Procedure: Solvent: 7 parts by weight dimethylformamide
as §2, §3
Rice seedlings (Oryza sativa) are treated by being dipped into the preparation of active compound of the desired concentration and populated with larvae of the green rice leaf hoppers (Nepliotettix cincticeps) while the seedlings are still moist.
After the desired period of time, the kill in % is determined. 100% means that all leaf hoppers have been killed, 0% means that none of the leaf hoppers have been killed.

Lucilia cuprina-Larvae = assay: Blowfly-Larvae-Test/Development-inhibitory Action; type: in vivo; conditions: active compound concentration of 1000 ppm, read-out: activity (inhibition of fly emergence)
Procedure: Blowfly-Larvae-Test/Development-inhibitory Action
Test animals: Lucilia cuprina-Larvae
Solvent: dimethyl sulphoxide
20 mg of active compound are dissolved in 1 ml of dimethyl sulphoxide, more dilute concentrations are prepared by dilution with distilled H2O.
Approximately 20 Lucilia cuprina larvae are introduced into a test tube which contains approximately 1 cm^3 of horse meat and 0.5 ml of the preparation of active compound to be tested. After 24 and 48 hours, the efficacy of the preparation of active compound is determined. The test tubes are transferred into beakers whose bottom is covered with sand. After a further 2 days, the test tubes are removed, and the pupae are counted.
The activity of the preparation of active compound is assessed by the number of flies which have emerged after 1.5 times the development time of an untreated control. 100% means that no flies have emerged; 0% means that all the flies have emerged normally.

[3] = system: peach affids (Myzus persicae); assay: Myzus-Test (cabbage leaves dipped); type: in vivo; conditions: active compound concentration of 0.1%, after 6 days
Procedure: (§4) Solvent: 7 parts by weight of dimethylformamide
as §2, §3
Cabbage leaves (Brassica oleracea), which are heavily infested by peach affids (Myzus persicae) are treated by being dipped into the preparation of active compound of the desired concentration.
After the desired period of time, the kill in per cent is determined. 100% means that all affids have been killed; 0% means that none of the affids have been killed.

[4] = system: fruit tree red spider mite (Panonychus ulmi); assay: Panonychus-Test (plum trees sprayed); type: in vivo; conditions: active compound concentration of 0.02%, after 7 days
Procedure: as §1, §2
To produce a suitable preparation of active compound, 1 part by weight of active compound is mixed with the stated amount of solvent and the stated amount of emulsifier, and the concentrate is diluted with emulsifier-containing water to the desired concentration.
Plum trees (Prunus domestica), of a height of approximately 30 cm which are heavily infested by all development stages of the fruit tree red spider mite (Panonychus ulmi) are sprayed with a preparation of active compound of the desired concentration.
After the desired period of time, the effect in % is determined. 100% means that all spider mites have been killed, 0% means that none of the spider mites have been killed.

[5] = system: larvae of the mustard beetle (Phaedon cochleariae); assay: Phaedon-Larvae-Test (cabbage leaves dipped); type: in vivo; conditions: active compound concentration of 0.1%, after 7 days
Procedure: as §4, §2, §3
After the desired period of time, the kill in % was determined. 100% means that all beetle larvae have been killed, 0% means that none of the beetle larvae have been killed.

[6] = system: caterpillars of the owlet moth (Spodoptera frugiperda); assay: Spodoptera Frugiperda-Test (cabbage leaves dipped); type: in vivo; conditions: active compound concentration of 0.1%, after 7 days
Procedure: Spodoptera Frugiperda-Test
as §4, §2, §3
Cabbage leaves (Brassica oleracea) are treated by being dipped into the preparation of active compound of the desired concentration and populated with caterpillars of the owlet moth (Spodoptera frugiperda) while the leaves are still moist.
After the desired period of time, the kill in % is determined. 100%, means that all caterpillars have been killed; 0% means that none of the caterpillars have been killed.

CON=C1CCC2(CC1)OC(=O)C(c1c(C)cc(C)cc1C)=C2O (centres unmarked) [Example I-2-a-2]
100%: kill [1] | kill [2]

CON=C1CCC2(CC1)OC(=O)C(c1c(C)cc(C)cc1C)=C2OC(=O)C(C)(C)C (centres unmarked) [Example I-2-b-2]
100%: kill [1] | inhibition at 1000 ppm (Lucilia cuprina-Larvae) | kill [3] | effect (spider mites killed) [4] | kill [5] | kill [6]
